Results: EP0155454A1, “Use of pirenzepine, its salts or medicaments containing pirenzepine for the treatment of colon disorders” (Dr. Karl Thomae GmbH, priority 1984, dated 1985)
Where a name gives a salt, the structure may show the parent alone. Read-outs that look alike come from different tables or passages of the source.

Key:
Dickdarmmotorik [1] = conditions: in vivo; cited from earlier work
Darmmotilität = conditions: cited from earlier work
Colon irritabile = assay: Double-blind cross-over clinical study versus placebo in patients with Colon irritabile; assay type: in vivo, Patienten; conditions: for symptomfrei oder gebessert: 2 x 25 mg/Tag, 2 weeks per period, 30 Patienten
Excerpt: Bei klinischen Untersuchungen an 30 Patienten mit dem angegebenen Beschwerdebild Colon irritabile, wobei sich trotz umfangreicher diagnostischer Maßnahmen bei keinem der Patienten ein pathologischer Befund ergab, wurde Pirenzepin-dihydrochloridmonohydrat zum Einsatz gebracht. Da es für einen möglichen Therapieerfolg bei der geschilderten Indikation keinen objektivierbaren Parameter gibt, wurde jeder Patient in Doppelblind-cross over-Technik entweder mit Pirenzepin oder mit Placebo behandelt. Die Dosierung betrug 2 x 25 mg/Tag. Der Versuchsplan ermöglichte also bei jedem Patienten einen zweimal 2-wöchigen Beobachtungszeitraum. Die geprüften Parameter waren Obstipation, Diarrhoe, Schafkotstuhl, wechselnde Stühle und Schleimabsonderung. Die Beurteilung der therapeutischen Wirkung erfolgte vor Beginn der Behandlung und nach jedem einzelnen Versuchsabschnitt. Jeder Patient erhielt einen weitgefächerten Score, um seine subjektiven Eindrücke festzuhalten. Diese Angaben wurden ausgewertet, wobei die generalisierten Befunde bezüglich der Einzelsymptomatik in der nachstehenden Tabelle aufgeführt sind: […]

Dickdarmmotorik [2] = assay: Neostigmine-stimulated colon motility in healthy volunteers, acute intravenous pirenzepine; assay type: in vivo, freiwilligen Probanden
Excerpt: Pirenzepin löst einen krankhaften Spasmus im Darmtrakt ohne den Darm zu lähmen. Um dieses zu beweisen, bzw. um zu überprüfen, ob Pirenzepin anders als Atropin die gestörten motorischen Verhältnisse zu beeinflussen in der Lage ist und sich damit von Anticholinergika, Atropin oder Atropinderivaten unterscheidet, wurde die Dickdarmmotorik bei freiwilligen Probanden mit Neostigmin stimuliert und im Akutversuch Pirenzepin intravenös in therapeutischen Dosen verabreicht. In einer zweiten Serie wurden die Druck- und Motorikverhältnisse bei Patienten mit Colon irritabile vor und nach einer oralen Therapie mit Pirenzepin geprüft. Die dabei erzielten Ergebnisse lassen sich wie folgt zusammenfassen: Im Vergleich zur basalen Untersuchungsperiode konnte unter Neostigminstimulation an gesunden Testpersonen eine signifikante Zunahme der Druckamplitude um 21 %, der Kontraktionsdauer um 76 % und ein Anstieg des Motilitätsindex um 82 % beobachtet werden.

[3] = intravenös, therapeutic doses, after Neostigmin stimulation

Compound: CN1C2CCC1CC(OC(=O)C(CO)c1ccccc1)C2 (racemic) [Atropin]
- propulsive motorische Kontraktionen (Dickdarmmotorik [1]): zum Erliegen bringt
- Verminderung der Darmmotilität (Darmmotilität; in vivo): eine Verminderung der Darmmotilität bewirkt

Compound: CN1CCN(CC(=O)N2c3ccccc3C(=O)Nc3cccnc32)CC1 [Gastrozepin, 5,11-Dihydro-11 [(4-methyl-piperazin-1-yl)acetyl]-6H-pyrido [2,3-b] [1,4] benzodiazpin-6-on-dihydrochloridmonohydrat]
- symptomfrei oder gebessert (Colon irritabile; Symptom Diarrhoe): 84%
- symptomfrei oder gebessert (Colon irritabile; Symptom Obstipation): 72%
- symptomfrei oder gebessert (Colon irritabile; Symptom Schafkotstuhl): 80%
- symptomfrei oder gebessert (Colon irritabile; Symptom Schleimabsonderung): 83%
- symptomfrei oder gebessert (Colon irritabile; Symptom Wechselnde Stühle): 89%

Compound: CN(C)C(=O)Oc1cccc([N+](C)(C)C)c1 [Neostigmin]
- Anstieg des Motilitätsindex (Dickdarmmotorik [2]; in vivo): 82%
- Zunahme der Druckamplitude (Dickdarmmotorik [2]; in vivo): 21%
- Zunahme der Kontraktionsdauer (Dickdarmmotorik [2]; in vivo): 76%

Compound: CN1CCN(CC(=O)N2c3ccccc3C(=O)Nc3cccnc32)CC1 [Pirenzepin, 5,11-Dihydro-11-[(4-methyl-piperazin-1-yl)-acetyl)-6H-pyrido [2,3-b] [1,4] benzodiazepin-6-on]
- Unterschiede zwischen der Placebogruppe und der Verumgruppe (Colon irritabile; all tested parameters): signifikante bis hochsignifikante Unterschieden zugunsten von Pirenzepin
- Wirksamkeit in der Indikation Colon irritabile (Colon irritabile; overall assessment): sehr gut wirksam
- Abnahme der Druckamplitude (Dickdarmmotorik [2]; [3]): bis zum Ausgangsniveau
- Abnahme der Kontraktionsdauer (Dickdarmmotorik [2]; [3]): bis zum Ausgangsniveau
- Abnahme der propulsiven Kontraktionen (Dickdarmmotorik [2]; [3]): nicht zu registrieren
- Abnahme des Motilitätsindex (Dickdarmmotorik [2]; [3]): bis zum Ausgangsniveau
- Neostigmin-induzierte segmentale Kolonkontraktionen (Dickdarmmotorik [2]; summary statement): vermindert
- Verminderung der Darmmotilität (Darmmotilität; therapeutische Höchstdosen): nicht sichtbar
